# Data: patent US12685754B2, “Method of fixating and stabilizing nitric oxide metabolites through fermentation of nitrogen-containing natural substance” (priority 2019, dated 2026)
# Entries after “also recorded” stand apart in the source; their conditions may differ.
# Columns and labels:
# [1] = test system: mouse with DNFB-induced atopic dermatitis; experiment: DNFB-induced atopic dermatitis mouse: visual examination, ear swelling, histopathology; type: in vivo, Balb/c mouse; conditions: histopathological test, H&E, last day of test; control DNFB + DW 843.17 ± 55.22
# Experimental: As a test animal, 5-week old male Balb/c mouse was obtained from Samtako (South Korea) and, after acclimatization for 1 week, used for the test. The breeding chamber for test animal has controlled light and darkness cycle with an interval of 12 hours, and temperature was maintained at 23±2° C. and humidity was maintained at 50 to 60%.
# Cabbage fermentation extract was used as a test sample of the test, and, specifically, fermented cabbage which has been prepared according to the method of the present invention was frozen at −80° C. and freeze-dried for 5 days (PVTFD10R, Ilshin Lab, Korea). Thus-obtained powder was dissolved in distilled water and used as a test sample. […]
# Anti-atopic effect was analyzed based on visual examination, ear swelling, measurement of interferon γ in blood serum, and histopathological examination. […]
# [2] = Release of nitric oxide at acidic condition like artificial stomach; type: physicochemical; conditions: HCl solution with NaCl and KCl; Sievers Nitric Oxide Analyzer 280i
# Experimental: (§1) To figure the optimum fermentation condition allowing fixating and stabilization of the nitric oxide metabolites at the highest level, production amount of nitric oxide metabolites was examined depending on various fermentation temperatures, dissolved oxygen concentrations (level), and chemical oxygen demands. For measuring the nitric oxide metabolites, amount of nitric oxide was measured under acidic condition and also reducing condition using a chemical method and calculation was made for the nitric oxide metabolites. As for the acidic condition, a condition mimicking human stomach was created using hydrochloride (HCl) solution with sodium chloride (NaCl) and potassium chloride (KCl), and then nitric oxide metabolites were released in the solution. […] Thereafter, by using a nitric oxide detector (Sievers Nitric Oxide Analyzer 280i), amount of the nitric oxide metabolites fixated in fermented substance was measured.
# (§2) As a test material, a fermented substance using garlic, cabbage, onion, bean sprouts, lettuce, soybean, or cricket, and sodium nitrite were used. […] As a result, from all samples other than sodium nitrite (residual nitrite ion concentration of 5 mg/L), nitrite ion was not detected.
# [3] = Release of nitric oxide at reducing condition mimicking the intestinal condition of human body; type: physicochemical; conditions: vitamin C and sodium chloride in phosphate buffer solution
# Experimental: as §1, §2
# [4] = samples collected after measurement at acidic or reduction condition
# Experimental: as §2
# [5] = test system: rat injected with DOCA (high blood pressure); experiment: Blood pressure-lowering effect in test animal of high blood pressure (Example 9-2); type: in vivo, Sprague Dawley (SD) rat; conditions: 15-120 minutes; NaNO2 oral 18.6 mg/kg, test sample rectal 12.5 mg/kg as NO2-; once a day for 4 weeks
# Experimental: The acclimated SD rat (8-week-old) was intraperitoneally injected with DOCA (deoxycorticosterone acetate; […] To determine an occurrence of high blood pressure, blood pressure was measured by using tail-cuff plethysmography (Muromachi Kikai, Japan), and animals with systolic blood pressure of at least 140 mmHg were selected and used for the test. When various plants rich in polyphenol are used, it is possible to obtain fermentation liquid containing both nitric oxide metabolites and polyphenol. In this example, fermented liquid obtained by fermenting Korean garlic was used for the test after concentration. Content of the nitric oxide metabolites in garlic fermentation concentrate which has been obtained after concentration was adjusted such that it is 200 ppm or higher in terms of NO2^−. It is preferable that the concentration step is carried out for 24 hours to 48 hours at temperature of 20° C. to 30° C. and stirring speed of 100 rpm to 300 rpm.
# [6] = test system: mouse injected with STZ (diabetes); experiment: Oral glucose tolerance test for test animal of diabetes (Example 9-3); type: in vivo, C57BL/6 mouse; conditions: glucose 2 g/kg; 15-120 minutes; NaNO2 oral 18.6 mg/kg, test sample rectal 12.5 mg/kg; once a day for 4 weeks
# Experimental: (§3) As a test animal, 4-week-old male C57BL/6 mouse was obtained from Samtako (South Korea) and used. The test animals were acclimated for 1 week under the same breeding chamber condition as Example 5 above. The acclimated C57BL/6 mouse was then intraperitoneally injected once with STZ (streptozotocin; Sigma-Aldrich, USA) solution, which has been prepared at concentration of 120 mg/kg in 0.1 M citrate buffer (pH 4.5), to induce diabetes. Two weeks after administering STZ, the mouse was fasted for 16 hours and blood was taken from tail vein of the test animal to measure fasting blood glucose using a simple blood glucose meter (Glucotrend, Roche, Germany). […] Body weight, feed intake amount, and blood glucose level were measured twice a week. After one week, blood glucose level was measured again and test animals which maintained fasting blood glucose of not less than 200 mg/dL were selected and used for the test.
# (§4) In this example, fermented liquid obtained by fermenting Korean garlic was used for the test after concentration. Content of the nitric oxide metabolites in garlic fermentation concentrate which has been obtained after concentration was adjusted such that it is 200 ppm or higher in terms of NO2^−. It is preferable that the concentration step is carried out for 24 hours to 48 hours at temperature of 20° C. to 30° C. and stirring speed of 100 rpm to 300 rpm.
# [7] = test system: test animal of diabetes (STZ); experiment: Blood markers of diabetes and diabetes complications after 4 weeks of administration (Example 9-4); type: in vivo, C57BL/6 mouse; conditions: 4 weeks once a day, NaNO2 oral, test sample rectal
# Experimental: as §3, §4
# To the test animal of diabetes prepared in Example 6, NaNO2 was administered orally once a day for 4 weeks or the test sample (garlic fermentation concentrate obtained by concentration) was administered rectally also once a day for 4 weeks. On the last day of test, blood was collected from all test animals to complete the test. After that, content of blood glucose, glycated hemoglobin, insulin, creatinine, and urea nitrogen in the collected blood were measured by using a diagnostic kit. Specifically, the blood glucose, glycated hemoglobin, and insulin of Table 3 were used for determining and analyzing the anti-diabetes effect, while creatinine and urea nitrogen of Table 3 were used for determining and analyzing the effect of alleviating the symptoms of diabetes complications. A decrease in kidney function is one of the diabetes complications, and creatinine and urea nitrogen are a clinical biomarker for measuring the kidney function.
Compound,Ear thickness [1] [μm],release amount of nitric oxide at acidic condition like artificial stomach [2] [mg/L],release amount of nitric oxide at reducing condition mimicking the intestinal condition of human body [3] [mg/L],residual nitrite ion concentration [4] [mg/L],change in blood pressure over time [5],blood glucose level in OGTT [6],Creatinine ([7]; control group 0.25 ± 0.05) [mg/dL],Glycated hemoglobin ([7]; control group 7.5 ± 0.3) [%],Urea nitrogen ([7]; control group 43.2 ± 0.8) [mg/dL],Insulin ([7]; control group 80.0 ± 10.7) [ng/mL],"Fasting blood glucose ([7]; control group 480.0 ± 6.0, normal 106.0 ± 5.0) [mg/dL]"
citrate [DNFB + CA],593.17 ± 71.27,,,,,,,,,,
"O=N[O-].[Na+] [NaNO2, sodium nitrite]",,130.7,488.4,5,"rapid decrease in blood pressure; also recorded: after the sharp decrease in initial blood pressure, the blood pressure has dramatically increased again",rapid decrease in blood glucose level; also recorded: no further decrease in the blood glucose level,0.18 ± 0.03,6.2 ± 0.3,37.1 ± 0.5,150.0 ± 9.5,320.0 ± 11.0
nitrite [DNFB + N],463.67 ± 77.08,,,,,,,,,,
